Test results from patent US4543255A, “Carbocyclic analogs of purine 2'-deoxyribofuranosides” (Southern Research Institute, priority 1984, dated 1985).
Converted amounts (≈) assume the structure as drawn. “Also recorded” adds a separate entry of the source. Like-named read-outs stand apart in the source and are kept apart here.

Columns and labels:
[1] = tested on: Herpes Simplex Virus Type 1, Strain 377; assay: antiviral activity vs herpes simplex virus type 1 (virus-induced cytopathogenic effects in host cells); format: cell-based; details: for VR (Virus Rating): VR ≥1 indicates definite antiviral activity, 0.5-0.9 marginal to moderate; for EC50: Human alphaherpesvirus 1, Vero, read-out: MIC50 (concentration for 50% inhibition of virus-induced cytopathogenic effects); for antiviral activity against HSV-1 (in words): comparisons are with Ara-A (positive control)
Procedure: (§1) Certain representatives of Formulas V-VIII have potent antiviral activity and may be useful for the treatment of virus-induced diseases. The antiviral activity of compounds represented by Formulas V-VIII was measured as a virus rating (VR), and the potency (MIC50) was determined as the concentration of the tested compound required to inhibit virus-induced cytopathogenic effects in host cells by 50%. Carbocyclic analogs of 2'-deoxyribofuranosides represented by Formulas V-VIII have unequivocal and generally high activity in inhibiting replication of both type 1 herpes simplex virus (HSV-1) and type 2 herpes simplex virus (HSV-2). […] Notable examples are the carbocyclic analogs of 2,6-diaminopurine 2'-deoxyribofuranoside (Example 5), 2'-deoxyguanosine (Example 6), 2'-deoxythioguanosine (Example 7), 2,6-diamino-8-azapurine 2'-deoxyribofuranoside (Example 9), and 2'-deoxy-8-azaguanosine (Example 10).
(§2) Carbocyclic analogs (Formulas (V-VIII) of 2'-deoxyribofuranoside derivatives of 2-amino-6-substituted-purines and of 2-amino-6-substituted-8-azapurines were tested for antiviral activity against viruses that replicate in mammalian cells growing in cell culture. The results of these tests against herpes simplex viruses are summarized in Table 1. The Virus Rating (VR) is a weighted measurement of antiviral activity determined by the method of Ehrlich et al., Annals of the New York Academy of Science, volume 130, pages 5-16, 1965. In tests carried out by this method, a VR of 0.5-0.9 indicates marginal to moderate antiviral activity, and a VR equal to or greater than 1 indicates definite antiviral activity. The higher the value of VR, the greater is the antiviral activity. The MIC50 (minimum inhibitory concentration, 50%) is the concentration of a test compound required for 50% inhibition of virus-induced cytopathogenic effects. The 2'-deoxyribofuranoside analogs of Examples 4-10 have unequivocal and selective antiviral activity against both type 1 and type 2 strains of herpes simplex virus.
(§3) ^a Antiviral evaluations were performed with HSV1 and HSV2 replicatin
(§4) either in secondary cultures of rabbit kidney cells or in Vero cells.
(§5) ^b 9D-Arabinofuranosyladenine was tesed as a positive control; the
(§6) range of values of VR and MIC50 came from several tests with either
(§7) rabbit kidney cells or Vero cells as the host cells.

[2] = tested on: Herpes Simplex Virus Type 2, Strain MS; assay: antiviral activity vs herpes simplex virus type 2 (virus-induced cytopathogenic effects in host cells); format: cell-based; details: for VR (Virus Rating): VR ≥1 indicates definite antiviral activity, 0.5-0.9 marginal to moderate; for EC50: read-out: MIC50 (concentration for 50% inhibition of virus-induced cytopathogenic effects); for antiviral activity against HSV-2 (in words): comparisons are with Ara-A (positive control)
Procedure: as §1, §2, §3, §4, §5, §6, §7

[3] = HSV-1 strain 377, rabbit kidney cells or Vero cells
[4] = HSV-2 strain MS, rabbit kidney cells or Vero cells
[5] = Human alphaherpesvirus 2, HSV-2 strain MS, rabbit kidney cells or Vero cells

SMILES | VR (Virus Rating) [1, 3] | EC50 [1, 3] [µg/mL] | VR (Virus Rating) [2, 4] | EC50 [2, 5] [µg/mL] | antiviral activity against HSV-1 (in words) [1] | MIC50 (concentration for 50% inhibition of virus-induced cytopathogenic effects) [1, 3] [µg/mL] | antiviral activity against HSV-2 (in words) [2] | EC50 [1] [µg/mL] | EC50 ([2]; Human alphaherpesvirus 2, Vero) [µg/mL]
Nc1nc(Cl)c2ncn([C@@H]3C[C@H](CO)[C@@H](O)C3)c2n1 (relative stereo) [Example 4, (1α, 2β, 4α)-4-(2-Amino-6-chloro-9H-purin-9-yl)-2-hydroxycyclopentanemethanol] | 1.9 | 8.1 (≈ 28.5 µM) | 2.0 | 37 (≈ 130 µM) | – | – | – | – | –
Nc1nc(N)c2ncn([C@@H]3C[C@H](CO)[C@@H](O)C3)c2n1 (relative stereo) [Example 5, (1α, 2β, 4α)-4-(2,6-Diamino-9H-purin-9-yl)-2-hydroxycyclopentanemethanol] | – | 0.6 (≈ 2.27 µM) | 2.9 | 2.4 (≈ 9.08 µM) | more active (VR=4-5) and more potent (lower MIC50) | 0.3 | equivalent or superior in activity and potency to Ara-A; also recorded: markedly more effective than was Ara-A | – | –
Nc1nc2c(ncn2[C@@H]2C[C@H](CO)[C@@H](O)C2)c(=O)[nH]1 (relative stereo) [Example 6, 2-Amino-1,9-dihydro-9-[(1α, 3β, 4α)-3-hydroxy-4-(hydroxymethyl)cyclopentyl]-6H-purin-6-one] | ≥ 4.6 | < 0.3 | 3.7 | 0.8 (≈ 3.02 µM) | more active (VR=4-5) and more potent (lower MIC50) | – | equivalent or superior in activity and potency to Ara-A; also recorded: markedly more effective than was Ara-A | – | –
Nc1nc2c(ncn2[C@@H]2C[C@H](CO)[C@@H](O)C2)c(=S)[nH]1 (relative stereo) [Example 7] | – | < 3.2 | 1.7 | 32 (≈ 114 µM) | more active (VR=4-5) and more potent (lower MIC50) | 1.8 | – | – | –
Nc1nc(Cl)c2nnn([C@@H]3C[C@H](CO)[C@@H](O)C3)c2n1 (relative stereo) [Example 8, (1α, 2β, 4α)-4-(5-Amino-7-chloro-3H-1,2,3-triazolo[4,5-d]pyrimidin-3-yl)-2-hydroxycyclopentanemethanol] | – | < 1 | 1.9 | 23 (≈ 80.8 µM) | – | 1.6 | – | – | –
Nc1nc(N)c2nnn([C@@H]3C[C@H](CO)[C@@H](O)C3)c2n1 (relative stereo) [Example 9, (1α, 2β, 4α)-4-(5,7-Diamino-3H-1,2,3-triazolo[4,5-d]pyrimidin-3-yl)-2-hydroxycyclopentanemethanol] | – | < 3.2 | 2.3 | 10 (≈ 37.7 µM) | more active (VR=4-5) and more potent (lower MIC50); also recorded: much more effective against HSV-1 than was Ara-A | 2.0 | equivalent or superior in activity and potency to Ara-A; also recorded: at least as effective as Ara-A against HSV-2 | – | –
Nc1nc2c(nnn2[C@@H]2C[C@H](CO)[C@@H](O)C2)c(=O)[nH]1 (relative stereo) [Example 10, 5-Amino-3,6-dihydro-3-[(1α, 2β, 4α)-3-hydroxy-4-(hydroxymethyl)cyclopentyl]-7H-1,2,3-triazolo[4,5-d]pyrimidin-7-one] | 4.2 | 0.6 (≈ 2.25 µM) | 2.1 | 6.9 (≈ 25.9 µM) | more active (VR=4-5) and more potent (lower MIC50); also recorded: much more effective against HSV-1 than was Ara-A | – | equivalent or superior in activity and potency to Ara-A; also recorded: at least as effective as Ara-A against HSV-2 | – | –
Nc1ncnc2c1ncn2[C@@H]1O[C@H](CO)[C@@H](O)[C@@H]1O [Ara-A, 9D-Arabinofuranosyladenine, reference compound] | 2.5-3.1 | – | 1.6-2.3 | – | – | – | – | 6.4 to 9.8 (≈ 23.9 to 36.7 µM) | 6.4 to 30 (≈ 23.9 to 112 µM)
